Data set [1] has as its system angiogenesis induced by human colorectal cancer (WiDr cells). Briefly: Antiangiogenic effect in vivo: chamber with WiDr cells transplanted to mouse, 51Cr-labeled erythrocytes. The note with it: 1 mg/kg intraperitoneally once a day for 4 days. Here is the method:
Whether angiogenesis induced by human colorectal cancer (WiDr cells) was inhibited by administering VD1207C or not was studied to examine the antiangiogenic effect of VD1207C in vivo.
A chamber in which the WiDr cells were sealed was transplanted to a mouse. Then VD1207C was administered intraperitoneally at each dose of 0.5, 1.0 and 2.0 mg/kg for 4 days once a day. The amount of angiogenesis induced by the tumor was measured quantitatively by measuring the radiao activity in the skin touching with the chamber as the amount of blood by statically injecting erythrocytes labeled by ^51Cr. In FIG. 1, vascular volume generated at each dose of VD1207C is shown.

Data set [2] in a line: Solubility (analysis data). The format is physicochemical.
The subject of data set [3] is VCAM-1. In words: Inhibition of TNFα-induced expression of adhesion molecule VCAM-1 on endothelial cells. The note with it: HUVEC, TNFα 1 ng/ml, 4 hours. Format: cell-based, human. Here is the method:
(§1) Endothelial cells derived from human umbilical vein (HUVEC) were cultured on a 96-well plate until they were fallen in a confluent state. The culture broth was removed. After 150 μl of a new culture broth was added to each well, 20 μl of a sample solution was added thereto. After 15 minutes, 30 μl of TNFα was added such that the final concentration became 1 ng/ml and it was incubated at 37° C. for 4 hours in a 5% CO2 incubator. Next, the culture broth was removed and the cells were washed twice with a phosphate buffer (PBS). Further, a PBS solution containing 0.025% glutaraldehyde was added and the well was allowed to stand at room temperature for 6 minutes to fix the cells. After the cells were immobilized, they were washed twice with 200 μl of phosphate buffer (PBSA) containing 0.25% BSA. Thereafter 100 μl of a PBSA solution containing 1 μg/ml of mouse anti-human VCAM-1 (R&D systems) or a mouse anti-human E-selectin antibody (R&D systems) was added to each well. The well was allowed to stand at room temperature for 30 minutes and then the cells were again washed. A PBSA solution containing 100 μl of peroxidase-conjugated goat anti-mouse antibody (Cosmo Bio Co., Ltd.) was added to the well. Then the well was allowed to stand at room temperature for 30 minutes and thereafter the cells were washed. In succession, 100 μl of 3,3*,5,5*-tetramethylbenzyidine (TMB) substrate solution was added to develop a color. Next, the coloring was stopped by 100 μl of 1M phosphoric acid to measure the absorbance at 450 nm.

In data set [4] the test system is E-selectin. Briefly: Inhibition of TNFα-induced expression of adhesion molecule E-selectin on endothelial cells. Format: cell-based, human. The note with it: HUVEC, TNFα 1 ng/ml, 4 hours. Here is the method:
as §1

For data set [5], the system named is Endothelial cells derived from human umbilical vein (HUVEC). In words: Inhibitory effect of growth of endothelial cells (MTT method). The format is cell-based. The note with it: three days. Here is the method:
Endothelial cells derived from human umbilical vein (HUVEC; manufactured by Sanko Junyaku) incubated in an EGM medium (manufactured by Sanko Junyaku) were adjusted to 1×10^4 cells/ml and each 100 μl were separately placed on a 96-well plate. After incubating overnight, 100 μl of medium containing sample were added thereto followed by incubating for three days. The cell numbers at that time were measured by MTT method. That is, 50 μl of PBS solution containing 0.33% of 3-(4,5-dimethylthiazol-2-yl)-2,5-diphenyltetrazolium bromide (MTT) was added thereto and incubation was continued for further 3-4 hours. After the supernatant liquid of the culture was removed, 100 μl of DMSO was added to dissolve a formazane which was formed in the cells and the absorbance at the wave length of 460 nm was measured by use of plate reader. The IC50 value is defined as a concentration that the absorbance was 50% of that observed when no sample was added.
A general note: Formazan colour is commonly taken as a measure of viable cells.

Data set [6] deals with aorta pieces of rat. Briefly: Inhibition of capillary formation in rat aorta model (aorta pieces cultured in collagen gel). The format is cell-based. The note with it: 7th day from addition of sample. Here is the method: In a method of screening the antiangiogenic effect, the degree of inhibition to the formation of lumens observed when an aortic fragment of a rat is cultured in a collagen gel was selected as an indicator (Nicosia R. F., Lab. Invest., 63, 115, 1990). Also, for the purpose of analyzing the mechanism of action of the antiangiogenic effect of the resulting compound, measurements were made concerning the effect of inhibiting the growth of endothelial cells by using endothelial cells derived from the human umbilical cord vein and the effect of inhibiting the expression of an adhesion molecules on endothelial cells.
The antiangiogenic potency was evaluated by the inhibition of capillary formation in rat aorta model in which aorta pieces of rat were cultured in collagen gel. That is, the aorta excised from male rat of Sprague-Dawley strain (8-12 weeks age) was washed with a Hanks' solution so that fat tissues around there were removed minutely. The aorta was incised to prepare pieces of 2 mm square and they were allowed to stand in a 24-well plate holding the endothelial cells upside. Then, 500 μl of neutralized Type I collagen (Cell Matrix Type I-A; manufactured by Nitta Gelatin) were poured over each well and allowed to stand at room temperature for about 20 minutes in a clean bench to solidify the gel. After gelling, 500 μl of MCDB 131 medium (manufactured by Chlorella Kogyo) were added thereto followed by incubating in a Co2 incubator (5% CO2) at 37° C. On the next day, the culture medium was exchanged with 500 μl of MCDB 131 medium containing the sample and the incubation was continued. And, at the stage of the 7th day from the addition of the sample, numbers of capillaries formed around the aorta were counted. The IC50 value of each sample is defined as a concentration that the number of blood capillaries is 50% of that observed when no sample was added.

Data set [7] is described as follows: Safety of VD1207 analogues, intraperitoneal administration over 4 days. Format: in vivo. Set-up: key to Blood (WBC) / Blood (PLAT) / Biochemistry (UN) / Biochemistry (GPT) / Weight (liver) / Weight (kidney) / Weight (lung) / Weight (spleen) / Body weight / Blood (RBC): —: “-” indicates no abnormality; “↑” and “↓” indicate an increase and a decrease, respectively; “↑” and “↓” indicate an increase and a decrease, respectively. Here is the method: Each of VD1207B, C, D, E, F and G2 was continuously administered intraperitoneally at each dose of 1 mg/kg and 2 mg/kg over 4 days to examine the safety of VD1207 analogues.

The test system of data set [8] is mouse colon cancer (Colon 38-OT-7). Briefly: Anti-metastatic effect: hepatic metastasis of mouse colon cancer transplanted to caecum. Format: in vivo. Conditions: for Toxic death: n 8. Here is the method: The mouse colon cancer (Colon 38-OT-7) having a high incidence of the hepatic metastasis was transplanted to the mouse caecum. Then VD1207C was administered intraperitoneallyat each dose of 0.5, 1.0 and 2.0 mg/kg once a day since 12 days after the transplantation.

The subject of data set [9] is collagen arthritis model. Conditions: Peacock D J., J. Exp. Med. 175, 1135-8, 1992; cited from earlier work.
Setting [10] is: 1 mg/kg i.p. 4 days, listed as C.
The mark [11] stands for this setting: 2 mg/kg i.p. 4 days, listed as C.
Where [12] appears, read: 1 mg/kg i.p. 4 days, listed as B.
Where [13] appears, read: 2 mg/kg i.p. 4 days, listed as B.
[14] abbreviates: 2 mg/kg i.p. 4 days, listed as E.

As to `CCCC(C(=O)c1cc(C(OC)C(C)C)c(O)c(C=O)c1O)C1CC(O)C2(OC2CC)C(O)O1` (single isomer, unassigned) [VD1207 C], in data set [1], the “Angiogenesis induced by WiDr cells (vascular volume)” value is “inhibited with a significant difference”. In [2], the “Solubility in ethyl acetate, chloroform and dimethyl sulfoxide” value (from here on “Solubility in ethyl acetate”) is “soluble”; the “Solubility in neutral water” value is on record as “insoluble”. Also, the “VCAM-1 (IC50 of expression)” value in data set [3] (listed as C) was found to be 0.85 µg/mL. Moreover, in data set [4] (listed as C), the “E-select (IC50 of expression)” value was 1.23 µg/mL. Also, the “IC50 (growth of endothelial cells, absorbance 50% of no sample)” value in data set [5] (listed as C) worked out at 0.08 µg/mL. Besides, the “IC50 (number of blood capillaries 50% of that without sample)” value in data set [6] (listed as C) is 0.050 µg/mL. Further, in [7] (1 mg/kg and 2 mg/kg i.p. 4 days), the “Weight of each of the liver, kidney and lung (autoptic findings)” value is listed as “increase”. Also, in data set [7] (1 mg/kg i.p. 4 days), the “Biochemistry (GPT)” value was “—”, the “Biochemistry (UN)” value is “—”, the “Blood (PLAT)” value is “—” and the “Blood (RBC)” value is “—”. Moreover, in data set [7] (1 mg/kg i.p. 4 days), the “Blood (WBC)” value is on record as “—”; the Body weight entry was “—”; the “Change in weight (FIGS. 2a and 2b)” value is on record as “inhibition to an increase in weight”; the “Weight (liver)” value is given as “↑”. For the same molecule, in data set [7] (1 mg/kg i.p. 4 days), the “Weight (spleen)” value is recorded as “—”. Besides, in data set [7] (setting [10]), the “Weight (kidney)” value is reported as “↑” and the “Weight (lung)” value was “↑”. The “Change in weight (FIGS. 2a and 2b)” value in data set [7] (2 mg/kg i.p. 4 days) is “reduction in weight”. Besides, in [7] (setting [11]), the “Blood (PLAT)” value is “↓”, the Body weight entry is “↓”, the “Weight (kidney)” value is on record as “↑” and the “Weight (lung)” value is “↑”. For the same molecule, in data set [8] (0.5 mg/kg i.p. once a day), the Hepatic metastasis incidence is 5/7; the “No. of metastatic nodules (mean ± STD)” value is “(9.7 ± 12.2)”; the “No. of metastatic nodules, median” value amounted to 1.0; the Toxic death amounted to 1. Besides, in data set [8] (1.0 mg/kg i.p. once a day), the Hepatic metastasis incidence was 3/6; the “No. of metastatic nodules (mean ± STD)” value is recorded as “(1.2 ± 1.6)”; the “No. of metastatic nodules, median” value is reported as 0.5; the Toxic death is given as 2. Also, in data set [8] (2.0 mg/kg i.p. once a day), the Hepatic metastasis incidence is 0/5; the “No. of metastatic nodules (individual animals)” value is given as “no metastatic nodules was observed at all”; the “No. of metastatic nodules, median” value came to 0; the Toxic death turned out to be 3. Besides, the “Number of the metastatic nodules” value in [8] (dose ranging from 0.5 mg/kg) is recorded as “decreased the number of the metastatic nodules”.

`CCCC(C(=O)c1cc(C(OC)C(C)C)c(O)c(C=O)c1O)C1CC(O)C2(OC2CC)C(O)O1` (single isomer, unassigned) [VD1207 B]: in [2], the “Solubility in ethyl acetate” value is on record as “soluble”; the “Solubility in neutral water” value is given as “insoluble”. Besides, the “VCAM-1 (IC50 of expression)” value in data set [3] was 2.48 µg/mL. The “E-select (IC50 of expression)” value in data set [4] came to 4.0 µg/mL. In [5] (listed as B), the “IC50 (growth of endothelial cells, absorbance 50% of no sample)” value came out at 0.24 µg/mL. In [6] (listed as B), the “IC50 (number of blood capillaries 50% of that without sample)” value stood at 0.053 µg/mL. For the same molecule, in data set [7] (1 mg/kg i.p. 4 days), the “Biochemistry (GPT)” value is reported as “—”, the “Biochemistry (UN)” value is listed as “—”, the “Blood (PLAT)” value is listed as “—” and the “Blood (RBC)” value is on record as “—”. Besides, in data set [7] (1 mg/kg i.p. 4 days), the “Blood (WBC)” value is given as “—”, the Body weight result is “—”, the “Weight (liver)” value is given as “↑” and the “Weight (spleen)” value is “—”. Besides, in [7] (setting [12]), the “Weight (kidney)” value was “—” and the “Weight (lung)” value is given as “—”. Also, in data set [7] (2 mg/kg i.p. 4 days), the “Biochemistry (GPT)” value is reported as “—”, the “Biochemistry (UN)” value is “—”, the “Blood (RBC)” value is reported as “—” and the “Blood (WBC)” value was “—”. Moreover, in [7] (2 mg/kg i.p. 4 days), the “Weight (liver)” value is listed as “↑” and the “Weight (spleen)” value was “—”. In data set [7] (setting [13]), the “Blood (PLAT)” value is “—”, the Body weight entry is reported as “—”, the “Weight (kidney)” value is “—” and the “Weight (lung)” value is listed as “—”.

`CCC1OC12C(O)CC(C(CC(C)C)C(=O)c1cc(C(OC)C(C)C)c(O)c(C=O)c1O)OC2O` (single isomer, unassigned) [VD1207 E]: in [2], the “Solubility in ethyl acetate” value is listed as “soluble”; the “Solubility in neutral water” value is reported as “insoluble”. The “VCAM-1 (IC50 of expression)” value in data set [3] (listed as E) worked out at 2.59 µg/mL. The “E-select (IC50 of expression)” value in [4] (listed as E) worked out at 4.44 µg/mL. The “IC50 (growth of endothelial cells, absorbance 50% of no sample)” value in data set [5] (listed as E) was found to be 0.21 µg/mL. Besides, in data set [6] (listed as E), the “IC50 (number of blood capillaries 50% of that without sample)” value was found to be 0.047 µg/mL. In data set [7] (1 mg/kg i.p. 4 days), the “Biochemistry (GPT)” value is “—”, the “Biochemistry (UN)” value is listed as “—”, the “Blood (PLAT)” value is “—” and the “Blood (RBC)” value is recorded as “—”. In addition, in data set [7] (1 mg/kg i.p. 4 days), the “Blood (WBC)” value is given as “—”, the Body weight result is given as “—”, the “Weight (liver)” value is recorded as “↑” and the “Weight (lung)” value is reported as “—”. Also, the “Weight (spleen)” value in data set [7] (1 mg/kg i.p. 4 days) was “—”. The “Weight (kidney)” value in [7] (1 mg/kg i.p. 4 days, listed as E) is “—”. Further, the “Blood (WBC)” value in data set [7] (2 mg/kg i.p. 4 days) is “↓”. Further, in [7] (setting [14]), the “Weight (kidney)” value was “—” and the “Weight (lung)” value is given as “—”.

In the case of `CO[C@@H]1[C@H](OC(=O)NC(=O)CCl)CC[C@]2(CO2)[C@H]1[C@@]1(C)O[C@@H]1CC=C(C)C` [AGM-470], in data set [9], the “Arthritis in a collagen arthritis model” value is reported as “inhibits arthritis”.

The values are drawn from US6645996B1, “Physiologically active substances” (Mercian Corporation and Eisai Co., Ltd., priority 1998, dated 2003).
